# Patent US20220331286A1, “CANNABIS LIMITS CANCER STEM CELL GROWTH IN POORLY DIFF[…]” (The Regents of the University of California, priority 2021, published 2022)
# Entries after “also recorded” stand apart in the source; their conditions may differ.
# Experiments:
# [1] = test system: PL-12 well-differentiated pancreatic tumor cells; assay: Viable cell count (Trypan Blue) after treatment; assay type: cell-based, human; conditions: for percent decrease in cell numbers of PL12, in words: various concentrations of WIN 55,212-2, CDDP 50 μg/ml
# Source text: (§1) Six different pancreatic tumor cell lines each characterized at poorly, intermediate and well differentiated stages pathologically by other laboratories previously were used to determine phenotype, susceptibility to NK cell-mediated cytotoxicity and secretion of IFN-γ directly correlating with the differentiation stages of the tumors. […] Furthermore, the stage of differentiation of the tumors was correlated with sensitivity to NK cell mediated cytotoxicity in pancreatic tumor cells. […] Therefore, a direct correlation between augmented sensitivity to NK-mediated lysis and poor differentiation of pancreatic tumors was evident from these experiments. For the following experiments MP2 and PL12 were used as representative tumor types for poorly differentiated and well differentiated tumors respectively. Human pancreatic cancer cell line MIA PaCa-2 (MP2), was provided by Dr. Guido Eibl (UCLA David Geffen School of Medicine) and PL12 was provided by Dr. Nicholas Cacalano (UCLA Jonsson Comprehensive Cancer Center). MP2 tumors were cultured with DMEM in supplement with 10% FBS and 1% Penicillin-Streptomycin (Gemini Bio-Products, CA). PL12 pancreatic tumors were cultured in RMPI 1640 medium supplemented with 10% FBS and 1% penicillin-streptomycin.
# (§2) RPMI 1640 (Gibco, Thermo Fisher Scientific, USA) complete medium with 10% fetal bovine serum (FBS) (Gemini Bio-Products, San Diego, Calif., USA), 1.4% of non-essential amino acid (Gibco, Thermo Fisher Scientific, USA), 1.4% sodium pyruvate (Gibco, Thermo Fisher Scientific, USA), 0,15% of sodium bicarbonate (Fisher Scientific, Waltham, Mass., USA) and 1% antibiotics/antimycotics (Gemini Bio-Products, San Diego, Calif., USA) was used for oral tumor culture. DMEM (Gibco, Thermo Fisher Scientific, USA) supplemented with 10% FBS and 1% antibiotics/antimycotics was used for pancreatic tumor cell culture. Oral squamous carcinoma cells (OSCCs) and oral squamous carcinoma stem cells (OSCSCs) were isolated from cancer patients with tongue tumor at UCLA. Human pancreatic cancer cell lines MIA PaCa-2 (MP2) and PL-12 were generously provided by Dr. Guido Eibl (UCLA David Geffen School of Medicine) and by Dr. Nicholas Cacalano (UCLA Jonsson Comprehensive Cancer Center), respectively. […] CDDP was purchased from Ronald Reagan UCLA Medical Center Pharmacy. […] TNF-α and IFN-γ were purchased from Peprotech (Rockyhill, N.J.).
# (§3) The number of viable cells was counted under light microscope using Trypan Blue staining (Sigma, Mo., USA).
# [2] = test system: MIA PaCa-2 (MP2) poorly differentiated/stem like pancreatic tumor cells; assay: Microscopy of cell morphology and viability; assay type: cell-based, human; conditions: different concentrations of WIN 55,212-2; CDDP 50 μg/mL; 24 hours
# [3] = test system: Oral squamous carcinoma cells (OSCCs); assay: Cell death by propidium iodide staining and flow cytometry; assay type: cell-based, human; conditions: 24 hours
# Description: (§4) After an overnight incubation the cells were washed twice and stained with propidium iodide (PI) at a concentration of 3 μg/ml. Flow cytometric analysis was performed using Attune flow cytometer results were analyzed using FlowJo vX software (Ashland, Oreg.).
# [4] = test system: oral squamous carcinoma stem cells (OSCSCs); assay: Viable cell count (Trypan Blue) after treatment; assay type: cell-based, human; conditions: WIN 55,212-2 10, 25, 50, 100 μM, CDDP 50 μg/ml, 24 hours
# Description: (§5) Oral squamous carcinoma cells (OSCCs) and oral squamous carcinoma stem cells (OSCSCs) were isolated from cancer patients with tongue tumors at UCLA. The cells were cultured in RPMI 1640 complete medium with 10% fetal bovine serum (FBS) 1.4% Antibiotic-Antimycotic, 1% sodium pyruvate, 1.4% non-essential amino acids, 1% L-glutamine, 0.2% gentamicin (Gemini Bio-Products, CA, USA), and 0.15% sodium bicarbonate (Fisher Scientific, PA, USA).
# (§6) As shown in FIG. 1A-1E, OSCSCs are affected more by WIN 55,212-2 than OSCCs. Both OSCCs (oral squamous carcinoma cells) and OSCSCs (oral squamous carcinoma stem cells) were treated with various concentrations of WIN 55,212-2 (10, 25, 50, and 100 μM) and CDDP (50 μg/ml), and the cell numbers were determined after 24 hours of treatment.
# as §2, §3
# [5] = test system: Oral squamous carcinoma cells (OSCCs); assay: Viable cell count (Trypan Blue) after treatment; assay type: cell-based, human; conditions: for killing / decrease in cell numbers of OSCCs, in words: WIN 55,212-2 10, 25, 50, 100 μM, CDDP 50 μg/ml
# Description: as §5, §6, §2, §3
# [6] = test system: PL-12 well-differentiated pancreatic tumor cells; assay: Cell death by propidium iodide staining and flow cytometry; assay type: cell-based, human
# Source text: (§7) Propidium iodide (PI) staining was used to determine the cell death by flow cytometry.
# [7] = test system: oral squamous carcinoma stem cells (OSCSCs); assay: Microscopy of cell morphology and viability; assay type: cell-based, human; conditions: WIN 55,212-2 even at the lowest concentrations; CDDP 50 μg/mL; 24 h
# [8] = test system: PL-12 well-differentiated pancreatic tumor cells; assay: Microscopy of cell morphology and viability; assay type: cell-based, human; conditions: different concentrations of WIN 55,212-2; CDDP 50 μg/mL; 24 hours
# [9] = test system: Oral squamous carcinoma cells (OSCCs); assay: Microscopy of cell morphology and viability; assay type: cell-based, human
# [10] = test system: breast cancer cell lines; conditions: not normal breast epithelium; cited from earlier work
# [11] = test system: MIA PaCa-2 (MP2) poorly differentiated/stem like pancreatic tumor cells; assay: Viable cell count (Trypan Blue) after treatment; assay type: cell-based, human
# Source text: as §1, §2, §3
# [12] = test system: mouse models of breast cancer, non-small cell lung cancer, and non-melanoma skin cancer; conditions: cited from earlier work
# [13] = test system: PL-12 well-differentiated pancreatic tumor cells; conditions: WIN 55,212-2, 48 h; mesylate
# [14] = test system: oral squamous carcinoma stem cells (OSCSCs); assay: Cell death by propidium iodide staining and flow cytometry; assay type: cell-based, human
# Description: as §4
# [15] = test system: tumor; assay: Cytostatic effect: tumor-cell coverage of the well-plate (FIG. 2); assay type: cell-based; conditions: at higher concentrations (FIG. 2)
# Source text: In FIG. 2, the cystostatic effect of WIN 55,212-2 are shown.
# [16] = test system: Oral squamous carcinoma cells (OSCCs)
# [17] = test system: MIA PaCa-2 (MP2) poorly differentiated/stem like pancreatic tumor cells; assay: Cell death by propidium iodide staining and flow cytometry; assay type: cell-based, human
# Source text: as §7
# [18] = test system: oral squamous carcinoma stem cells (OSCSCs)
# [19] = test system: MIA PaCa-2 (MP2) poorly differentiated/stem like pancreatic tumor cells
# [20] = WIN 55,212-2 50 μM or higher, CDDP 50 μg/mL, 24 h
# [21] = different concentrations of WIN 55,212-2, dose-dependent, 24-48 hours
# [22] = WIN 55,212-2 (5-50 μM), 24 hours, vs untreated control, mesylate
# [23] = various concentrations of WIN 55,212-2, 24 hours and 48 hours (FIG. 4A-4B)
# [24] = WIN 55,212-2 25-100 μM, 24-48 hours
# [25] = WIN 55,212-2 (5-50 μM), 24 hours, mesylate
smiles,measurement,setting,value
"N.N.[Cl][Pt][Cl] [CDDP, cis-diaminedichloridoplatinum (II)]","percent decrease in cell numbers of PL12, in words",[1],greater decrease in cell numbers
same,morphology/viability of MP2 under the microscope,[2],affected both PL-12 and MP2 morphologically
same,cell death in OSCCs compared with OSCSCs (PI staining),[3]; CDDP 50 μg/mL,significant cell death in OSCCs when compared to OSCSCs; also recorded: more cell death in OSCCs when compared to OSCSCs
same,"killing / decrease in cell numbers of OSCSCs, in words",[4],not killed
same,"inhibition of cell growth, OSCCs compared with OSCSCs","[5]; CDDP 50 μg/mL, 24 h",inhibit cell growth of OSCCs more than those seen with OSCSCs
same,"killing / decrease in cell numbers of OSCCs, in words",[5]; 24 hours,killed significantly; also recorded: greater decreases in cell numbers
same,cell death in PL-12 compared with MP2 (PI staining),[6]; CDDP 50 μg/mL,higher in PL-12 in the representative experiment (FIG. 16B) and similar in compiled data
same,morphology/attachment of OSCSCs under the microscope,[7],the majority of these cells were still attached to the cell culture plate
same,morphology/viability of PL-12 under the microscope,[8],affected both PL-12 and MP2 morphologically
same,morphology/viability of OSCCs under the microscope,[9]; [20],"loss of morphology, and the majority were detached from the plates"
"CCCCCc1cc(O)c2c(c1)OC(C)(C)[C@@H]1CCC(C)=C[C@@H]21 [THC, Tetrahydrocannabinol]",effect on radiotherapy / anti-proliferative effects of radiation,[10],failed to enhance anti-proliferative effects of radiation
"C=C(C)[C@@H]1CCC(C)=C[C@H]1c1c(O)cc(CCCCC)cc1O [CBD, Cannabidiol]",effect on radiotherapy / anti-proliferative effects of radiation,[10],failed to enhance anti-proliferative effects of radiation
"CS(=O)(=O)O.Cc1c(C(=O)c2cccc3ccccc23)c2cccc3c2n1[C@H](CN1CCOCC1)CO3 [WIN 55,212-2, (R)-(+)-[2,3-Dihydro-5-methyl-3-(4-morpholinylmethyl)pyrrolo[1,2,3-de]-1,4-benzoxazin-6-yl]-1-naphthalenylmethanone mesylate]","decreased numbers of viable cells, PL-12",[1]; [21],50-70%
same,"percent decrease in cell numbers of PL12, in words",[1],smaller decreases in cell numbers
same,"decreased numbers of viable cells, MP2",[11]; [21],60-85%
same,"percent decrease in cell numbers of MP2s, in words","[11]; various concentrations of WIN 55,212-2",significantly greater than PL12s
same,"tumor burden, lung metastasis and tumor induced angiogenesis in vivo",[12],"reduce tumor burden, lung metastasis and tumor induced angiogenesis"
same,"CD44 cell surface expression, PL-12",[13],decreased expressions; also recorded: Decreased cell surface expression
same,"CD54 cell surface expression, PL-12",[13],decreased expressions; also recorded: decreased the expression
same,morphology/viability of MP2 under the microscope,[2],"largely lost their shape and morphology, and had detached from the plates"
same,amounts of cell death in OSCSCs compared with those induced by CDDP,"[14]; WIN 55,212-2 25-100 μM, compiled data",either similar or higher when compared to those induced by CDDP
same,cell death in OSCSCs compared with OSCCs (PI staining),"[14]; all WIN 55,212-2 concentrations tested, 24 hours, mesylate",higher cell death
same,cell death in OSCCs (PI staining),"[3]; WIN 55,212-2 75 and 100 μM",up to 10%
same,"killing / decrease in cell numbers of OSCSCs, in words",[4]; mesylate,significantly killed; also recorded: significantly greater than OSCCs
same,"killing / decrease in cell numbers of OSCCs, in words","[5]; 24 hours, mesylate",much less; also recorded: smaller decrease in cell numbers
same,decrease in cell numbers of OSCC (viable cells),"[5]; WIN 55,212-2 10-100 μM, 24 hours",10-25%
same,cytostatic effect (fold change of the tumor-cell coverage of the well-plate),[15],arrests the tumor growth
same,"CD44 cell surface expression, OSCCs",[16]; [22],Decreased expression
same,"CD54 cell surface expression, OSCCs",[16]; [22],Decreased expression
same,"MHC class I cell surface expression, OSCCs",[16]; [22],Decreased expression
same,"PD-L1 (B7H1) cell surface expression, OSCCs",[16]; [22],Decreased expression
same,"MHC class I expression on the cell surface, OSCCs",[16]; [23],decreases in MHC class I expression
same,"percentages of dead cells, PL-12 (PI staining)",[6]; [24],up to 20%
same,"percentages of dead cells, MP2 (PI staining)",[17]; [24],approximately 30%
same,increase in cell death in MP2s compared with PL12 (PI staining),"[17]; various concentrations of WIN 55,212-2, 48 hours",greater higher increase in cell death
same,morphology/attachment of OSCSCs under the microscope,[7],became detached from the culture plates
same,"CD44 cell surface expression, OSCSCs",[18]; [25],decreased expressions
same,"CD54 cell surface expression, OSCSCs",[18]; [25],decreased expressions
same,"PD-L1 (B7H1) cell surface expression, OSCSCs",[18]; [25],decreased expressions
same,"MHC class I expression on the cell surface, OSCSCs",[18]; [23],decreases in MHC class I expression
same,morphology/viability of PL-12 under the microscope,[8],maintained their morphology and remained viable
same,effect on radiotherapy / anti-proliferative effects of radiation,[10],synergistically increased the effects of radiotherapy
same,"CD44 cell surface expression, MP2","[19]; WIN 55,212-2, 48 h, mesylate",decreased expressions; also recorded: Decreased cell surface expression
same,"CD54 cell surface expression, MP2","[19]; WIN 55,212-2, 48 h, mesylate",decreased expressions; also recorded: decreased the expression
same,"MHC class I cell surface expression, MP2","[19]; WIN 55,212-2, 48 h, mesylate",decreased expressions; also recorded: decreased on MP2
same,"PD-L1 (B7H1) cell surface expression, MP2","[19]; WIN 55,212-2, 48 h, mesylate",decreased expressions; also recorded: decreased in MP2
same,"extent of decrease in all surface receptor expressions, MP2 compared with PL-12","[19]; WIN 55,212-2 treatments (FIG. 17F)",significantly greater than those seen in PL-12 tumor cells
same,morphology/viability of OSCCs under the microscope,[9]; [20],some of the OSCCs still remained viable but some rounded up and detached and were not viable
same,morphology/viability of OSCCs under the microscope,"[9]; low concentrations of WIN 55,212-2, 24 h",remained viable
CCCCCCC(C)(C)c1cc(O)c2c(c1)OC(C)(C)C1CCC(=O)CC21 (centres unmarked) [nabilone],effect on radiotherapy / anti-proliferative effects of radiation,[10],failed to enhance anti-proliferative effects of radiation
